The results in this text go back to patent US9096543B2, “Nuclear transport modulators and uses thereof” (Karyopharm Therapeutics Inc., priority 2012, dated 2015).

Each structure is given as a SMILES string. Entries after “also recorded” stand apart in the source; their conditions may differ.

The test system of data set [1] is A549 xenograft tumors. Briefly: A549 lung carcinoma xenograft model. The format is in vivo, CB-17 SCID mice. As for the experimental part: The A549 cell line was derived from explant culture of alveolar carcinoma tissue from a person. The cells were grown in Ham's F12-K tissue culture media with 10% fetal calf serum and 1% penicillin/streptomycin. Cells were routinely trypsinized and passaged 1:10. Thirty-two (32) female CB-17 SCID mice (Charles River Labs strain code 236), aged 5 to 6 weeks were used with a mean pre-treatment body weight of 16.3 grams. Mice were divided into four (4) groups of eight (8) prior to the initiation of treatment based on tumor volume. On the day of implantation, cells were washed in PBS, trypsinized and resuspended in complete media to a density of 2×10^7 cells/mL prior to being mixed with an equal volume of Matrigel. This mixture was then inoculated subcutaneously into mice in a volume of 0.1 mL using a 23 G needle.
Animal weights and condition were recorded daily, and tumors were measured on Mondays, Wednesdays and Fridays with micro-calipers, and tumor volume was calculated as (length×width×width)/2.
Animals with weight loss of more than 20% of their starting weight were euthanized. Mice with weight loss of more than 15% of their starting weight were not treated again until weight loss recovered to less than 5% of their starting weight. Any animals with a tumor volume of more than 1500 mm^3 were euthanized.
Dosing solutions were prepared fresh on each day of dosing. Compound 2 was supplied as a lyophilized powder containing 69.61% Compound 2 with the balance made up of Pluronic F-68 and PVP K29/32. This was prepared by dissolving the lyophilized powder in sterile water. Cisplatin was dissolved at 5 mg/mL in DMSO and diluted 1:10 in sterile water for injection. All test articles were administered in a volume of 0.1 mL/10 g body weight.
Statistical differences between treatment groups were determined using Mann-Whitney Rank Sum or ANOVA tests with a critical value of 0.05.

Data set [2] concerns anti-collagen antibody induced arthritis. Briefly: Anti-collagen antibody induced mouse model of rheumatoid arthritis (CAIA). The format is in vivo, Balb/c mice. The protocol: Twenty-four (24) male Balb/c mice, aged 6 to 8 weeks were used. […] On study Day 0 (study commencement), all mice were subjected to a 2 mg intravenous injection of ArthritoMAb™ antibody cocktail (MD Biosciences #S1203001) followed by an intraperitoneal injection of LPS (100 μg/mouse) on study Day 3. […] Treatments were administered once daily on days 4, 6, 8 and 10 for all groups, except where dosing vacations applied. If an animal's weight dropped below 87% of its day 0 starting weight, the animal was not dosed until it gained weight equivalent to 90% or more of day 0 weight.
Arthritis development, clinical signs and body weights were monitored in all mice on study days 0, 3-8, 10 and 12. Observations included changes in skin, fur, eyes, mucous membranes, occurrence of secretions and excretions (e.g., diarrhea) and autonomic activity (e.g., lacrimation, salivation, piloerection, pupil size, unusual respiratory pattern). All paws (front left and right, and rear left and right) of each animal were examined for signs of arthritogenic responses prior to arthritis induction and test item or control item administration on study Day 0 and subsequently on study Days 3-8, 10 and 12 (study termination). A rthritis reactions were scored and recorded according to a 0-4 scale in ascending order of severity, as shown Table 5 below. Paw thickness was also measured using a dial caliper (Kroeplin, Munich, Germany).
The dose administered was calculated based on the assumption that the animals weighed, on average, 20 g. […] Vehicle for the vehicle control group was prepared by dissolving 0.6 g Pluronic and 0.6 g PVP in 100 mL distilled deionised water. The MAb stock solution (10 mg/mL) was supplied by MD Biosciences, Division of Morwell Diagnostics GmbH. LPS was diluted with PBS to achieve the appropriate concentration. Thorough vortexing was required just prior to its injection. […] A fixed volume of 200 μL was administered to each mouse.
Evaluation was primarily based on the mean values for arthritis scoring and paw thickness measurements. […]

The test system of data set [3] is IMQ-induced psoriasis. As to the kind of experiment: Imiquimod (IMQ)-induced dermal inflammation/psoriasis model (Study 1). The note with it: Compound 2 1 μM. The format is in vivo, BALB/c mice. The text has this:
Forty (40) male BALB/c mice aged 6 to 8 weeks were used with a pretreatment body weight of 22 to 30 g. The BALB/c mice were randomized into four (4) groups of 10 mice per group. A small area (about 2×2 cm^2) of skin on the dorsum of all the animals was neatly shaved. Group-I animals served as Naïve animals. Psoriasis was induced in Groups II to IV [Group II (IMQ; vehicle), Group III (IMQ; […] Animals were observed daily for a period of 13 days for any treatment-related symptoms. The daily observations included body weight, feed intake, skin thickening, scaling, folding, erythema, nasal discharge, movement, respiration, hair, distended abdomen, skin condition, fur, mucous membrane, presence or absence of secretions, eye condition, tail elevation, motor activity, posture and gait. Severity of damage to the dorsal portion of the skin was assessed by assigning erythema, scaling, folding and skin thickening scores based on external observations of skin, according to rubric in Table 9. […] Compound 2 was prepared by dissolving 1.47 mg of Compound 2 in 300 μL of 100% DMSO.

The test system of data set [4] is skin wounds. Briefly: Longitudinal full thickness skin incision wound model in mice. The note with it: Day 5 post-wounding; oral 4 or 7.5 mg/kg every other day, or topical 1 or 2.5 μM daily. The format is in vivo, C57BL/6J mice. The text has this: The effects of Compound 1 on skin wound healing were studied in a mouse longitudinal full thickness skin incision wound model. Upon arrival, animals were identified by ear tags, weighed and left to acclimate for several days before initiation of the experiment. On the day of wounding, mice were weighed and divided into 6 experimental groups with 6 animals per group, in accordance to weight differences stratified randomization. Prior to the surgical procedure, mice were anesthetized with isoflurane and the back of the animals was trimmed. Full thickness longitudinal incisions of 20 mm were performed using a standard scalpel blade on the backs of the animals (parallel to the backbone). Three hours after wounding, due to skin elasticity and activity of the animals, the incisions took on elliptical shapes. At this stage, the widest area of the wound was measured to establish a baseline wound width. Wound healing evaluation was made by measuring the widest area of the wound. Treatment groups consisted of oral gavage or topical groups. During the experiment, wounds were photo-documented and morphological analysis was performed. At the end of the experiment, 8 days post wounding, mice were sacrificed, wound widths were measured and biopsies of the wound area were collected and subjected to analysis.
Dosing solutions were prepared fresh on each day of dosing. […]

With `O=C(/C=C\n1cnc(-c2cc(C(F)(F)F)cc(C(F)(F)F)c2)n1)NNC(=O)CN1CCOCC1` [Compound 2, (Z)-3-(3-(3,5-bis(trifluoromethyl)phenyl)-1H-1,2,4-triazol-1-yl)-N′-(2-morpholinoacetyl)acrylohydrazide], the “tumor volume AUC compared to vehicle control (one-way ANOVA)” value in data set [1] (Compound 2 10 mg/kg PO, p=0.0005, 10 mg/kg) is recorded as “statistically significant difference”. For the same compound, the antitumor effect entry in data set [1] (Compound 2 orally, 5 and 10 mg/kg) was “had an antitumor effect at both 5 mg/kg and 10 mg/kg doses in a dose dependent manner”. In data set [2] (7.5 mg/kg or 4 mg/kg orally), the anti-arthritic activity result is reported as “exhibited significant anti-arthritic activity” and the “days on which rear paw arthritis score was significantly reduced compared to vehicle” value was 5-12. The “days on which total arthritis score was significantly reduced compared to vehicle” value in data set [2] (7.5 mg/kg orally, days 4, 6, 8, 10) is 5-12. Also, in data set [3], the “body weight, food and water intake” value was “without adversely affecting body weight, food and water intake”. In data set [3] (daily Day 1 to Day 13), the “IMQ-induced disease manifestation / disease activity index” value was “diminished IMQ-induced disease manifestation; also recorded: reduction in disease activity index in comparison to the vehicle treated group”.
With `CC(C)(C)C(=O)NNC(=O)/C=C\n1cnc(-c2cc(C(F)(F)F)cc(C(F)(F)F)c2)n1` [Compound 1, (Z)-3-(3-(3,5-bis(trifluoromethyl)phenyl)-1H-1,2,4-triazol-1-yl)-N′-pivaloylacrylohydrazide], the wound morphology assessment result in data set [4] is “positive effect; also recorded: displayed efficacy, and had a positive impact on wound healing; also recorded: better wound healing, as measured by wound size reduction and better scabbing properties”.
